From patent US9718771B2, “Aniline derivative, pharmaceutical composition containing same, and use thereof” (Kissei Pharmaceutical Co., Ltd., priority 2014, dated 2017)

Experiments:
[1] = molecular target: human S1P1 (EDG-1) (Homo sapiens (Human), UniProt P21453); assay: Confirmation test of antagonistic activity for human S1P1 receptor (35S-GTP binding, cell membranes); format: biochemical; conditions: inhibition of 35S-GTP binding induced by S1P1 receptor selective agonist; HEK293 membranes expressing human S1P1
human S1P1 (EDG-1), sequence (P21453 whole entry): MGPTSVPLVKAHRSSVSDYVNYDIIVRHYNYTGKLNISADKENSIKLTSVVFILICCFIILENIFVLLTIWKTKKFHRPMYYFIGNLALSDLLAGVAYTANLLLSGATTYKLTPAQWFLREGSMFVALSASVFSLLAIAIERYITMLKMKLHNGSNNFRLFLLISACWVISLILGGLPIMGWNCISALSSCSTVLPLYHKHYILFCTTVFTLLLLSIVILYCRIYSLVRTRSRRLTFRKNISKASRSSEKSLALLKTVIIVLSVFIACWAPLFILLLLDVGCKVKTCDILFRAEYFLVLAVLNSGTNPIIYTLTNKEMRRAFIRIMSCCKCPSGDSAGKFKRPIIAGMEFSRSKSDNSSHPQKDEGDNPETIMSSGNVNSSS
Protocol: Confirmation Test of Antagonistic Activity for Human S1P1 Receptor
Test compounds were tested by reduction of functional binding activity of ^35S-GTP (guanosine 5′-O-[gamma-thio] triphosphate, PerkinElmer) to G protein using cell membranes expressing human S1P1 (EDG-1). S1P1-pcDNA3.1/V5-His-Topo vector was prepared by inserting cDNA (NM_001400) encoding human S1P1 into the expression vector, pcDNA3.1/V5-His-Topo (registered trademark) (Invitrogen). Next, the above S1P1-pcDNA3.1 vector was transfected into HEK293 cells by Lipofectamine2000 (registered trademark) (Invitrogen). The transfected cells were incubated with D-MEM liquid medium each containing 10% FBS (Fetal bovine serum), 100 U/mL penicillin, 100 μg/mL streptomycin and 1 mg/mL Geneticin (registered trademark) (Invitrogen) in an incubator under the condition of 5% CO2 at 37° C. and Geneticin (registered mark)-resistant cell line stably expressing S1P1 were obtained. The obtained stably S1P1-expressing cells were incubated with D-MEM liquid medium each containing 10% FBS and 0.5 mg/mL Geneticin (registered trademark) in an incubator under the condition of 5% CO2 at 37° C. The cells grown to confluence were harvested by a buffer solution containing 50 mM Tris, 2 mM EDTA (ethylmediaminetetraacetic acid) and 125 mM sodium chloride, and centrifuged at 1880×g, 4° C. for 10 minutes. After a supernatant was removed, a cell pellet was resuspended by the same buffer solution. For making cell membranes fragile, this cell suspension was frozen at −80° C. and then thawed. The cells were centrifuged at 1880×g, 4° C. for 10 minutes, and a supernatant was removed. The cell pellet was suspended by adding the same buffer solution and a fracture solution (10 mM sodium bicarbonate and 5 mM EDTA, pH 7.5) at a ratio of 2:1. The cells were fractured by subjecting the cell suspension to ultrasonication, and a cell membrane fraction was isolated by centrifugation at 1880×g, 4° C. for 10 minutes and ultracentrifugation of the supernatant at 80000×g, 4° C. for 30 minutes. A pellet of the cell membrane fraction was suspended by the fracture solution containing protease inhibitor cocktail (Roche) and stored at −80° C. until use. A protein concentration of the cell membrane fraction was determined using BCA Protein Assay Kit (Pierce) in accordance with an attached protocol.
Inhibitory activity evaluation was performed by multi-screen (registered trademark) HTS 96-well plate (Millipore) using the cell membrane fraction stably expressing S1P1 obtained by the above operation. 25 μL of assay solution (50 mM Tris, 100 mM sodium chloride, 5 mM magnesium chloride, 1 mM EDTA, 1 mM DTT (dithiothreitol), 10 μM GDP (guanosine diphosphate) and 0.5% BSA (bovine serum albumin), pH 7.4), 25 μL of test compounds solution diluted by assay solution and 25 μL of the membrane fraction (0.2 μg protein/μL) were added to each well, and the mixture was gently shaken at room temperature: for 30 minutes. Then, 25 μL of ^35S-GTP, and 25 μL of 50 nM S1P1 receptor selective agonist (1-[4-(4-phenyl-5-trifluoromethylthiophen-2-ylmethoxy)benzyl]azetidine-3-carboxylic acid, “J. Med. Chem.”, 2004, vol. 47, pp. 6662-6665, compound 18) were added to each well, respectively, and it was reacted at room temperature for 60 minutes. After the reaction, a reaction solution of each well was suction-filtered. After suction filtration, ice-colded wash solution (50 mM Tris, 100 mM sodium chloride, […] and 1 mM EDTA, pH 7.4) was added to each well, and moreover filters were washed by suction filtration. This wash procedure was performed three times. A bottom of the plate containing the filters was dried at 60° C. After drying, 30 μL of MicroScinti-40 (PerkinElmer) was added to each well, and the radioactivity adsorbed on the filter was determined by TopCount NXT (registered trademark) (PerkinElmer) after shaking for 30 minutes at room temperature. […]

[2] = test system: EAE model; assay: Drug efficiency evaluation in experimental autoimmune encephalomyelitis (EAE) model; format: in vivo; conditions: DA rats, oral twice a day, 15 mg/kg, day 0 to day 13; mean ± standard error
Protocol: The Drug Efficiency Evaluation in Experimental Autoimmune Encephalomyelitis (EAE) Model
An EAE model (experimental autoimmune encephalomyelitis, hereinafter referred to as EAE), which is widely used as an animal model reflecting the pathological condition of human multiple sclerosis was prepared using DA rats (Japan SLC, 8 to 9-week-old in use) as described below, and the effect of test compound was confirmed.
Firstly, the emulsion for immunization was prepared by the method described below. After rats were sacrificed by exsanguination from the carotid artery under anesthesia of isoflurane, two spinal cords and a brain were collected. […]
The EAE score was evaluated daily to day 13 as day 0 when DA rats were immunized. The EAE score was evaluated as 0-5 points: 0 points: no symptoms, 1 point: walkable straight with normal our limbs but complete loss of tail tonus, 2 points: slight paralysis of a limb (especially hind limbs) and walkable wobbly, 3 points: full paralysis of two limbs (especially hind limbs) and walkable with a limp, 4 points: tetraplegia, moribund or abasia, 5 points: dead.
The area under the curve was calculated based on the variation per day of EAE score during evaluation periods from immunization day 0 to day 13, and used as an index for effects of test compounds.

CCN(c1ccc(Cl)c(C)c1)C(C)c1ccc(C)c(CN2CC(C(=O)O)C2)c1 (stereo not drawn) [Compound 2-6, 1-(5-{1-[(4-Chloro-3-methylphenyl)(ethyl)amino]ethyl}-2-methylbenzyl)azetidine-3-carboxylic acid]
IC50 [1]: 1 nM

CCN(c1ccc(Cl)c(C(F)(F)F)c1)C(C)c1ccc(C)c(CN2CC(C(=O)O)C2)c1 (stereo not drawn) [Compound 2-7, 1-(5-{1-[(4-Chloro-3-trifluoromethylphenyl)(ethyl)amino]ethyl}-2-methylbenzyl)-azetidine-3-carboxylic acid]
IC50 [1]: 1.2 nM
Area under the curve of EAE score [2]: 6.1 ± 1.6
